Laboratory results as given in ChEMBL document CHEMBL3352773, “Synthesis and evaluation of the 2,4-diaminoquinazoline series as anti-tubercular agents” (Bioorg Med Chem, 2014).

What was measured:
Type in all cases: functional
[1] = system: Mycobacterium tuberculosis; assay: Antituberculosis activity against Mycobacterium tuberculosis H37Rv RM1 IS6110 at nt 801 mutant assessed as complete growth inhibition after 5 days
[2] = system: Mycobacterium tuberculosis; assay: Antituberculosis activity against Mycobacterium tuberculosis H37Rv RM2 GT deletion at 175 to 176 mutant assessed as complete growth inhibition after 5 days
[3] = system: Mycobacterium tuberculosis; assay: Antituberculosis activity against Mycobacterium tuberculosis H37Rv RM7 C115W mutant assessed as complete growth inhibition after 5 days

Measured: MIC

FC(F)(F)c1ccc(CNc2nc(N3CCCCC3)nc3ccccc23)cc1
25 µM: [1] | [2] | [3]
